Several values for one entry are separate records, joined by “and”; a condition that tells them apart may be missing. Equal values may be shown once. Inconclusive results and toxic doses are left out. Cut-off read from the data, not from the text of the source: active = T/C of 150% or more; inactive = T/C below 125%.
System: L1210 leukemia ip in BDF1 mice, survival T/C
Experiment: NCI In Vivo Anticancer Drug Screen. Data for tumor model L1210 Leukemia (intraperitoneal) in B6D2F1 (BDF1) mice
Conditions: endpoint: mean survival time, higher = longer survival
Procedure, shortened: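 Antitumor effect is assessed in tumor-bearing animals. Survival in the compound arm is compared with a vehicle-dosed control arm and expressed as their quotient.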

[1] = dose: 100.0 mg/kg/injection, schedule: Q01DX009 (ip), vehicle: Klucel (hydroxypropylcellulose) (HPC)
[2] = dose: 100.0 mg/kg/injection, schedule: Q04DX003 (ip), vehicle: Klucel (hydroxypropylcellulose) (HPC)
[3] = dose: 200.0 mg/kg/injection, schedule: Q01DX009 (ip), vehicle: Klucel (hydroxypropylcellulose) (HPC)
[4] = dose: 200.0 mg/kg/injection, schedule: Q04DX003 (ip), vehicle: Klucel (hydroxypropylcellulose) (HPC)
[5] = dose: 400.0 mg/kg/injection, schedule: Q04DX003 (ip), vehicle: Klucel (hydroxypropylcellulose) (HPC)
[6] = dose: 100.0 mg/kg/injection, schedule: Q01DX001 (ip), vehicle: saline
[7] = dose: 200.0 mg/kg/injection, schedule: Q01DX001 (ip), vehicle: saline
[8] = dose: 400.0 mg/kg/injection, schedule: Q01DX001 (ip), vehicle: saline
[9] = dose: 25.0 mg/kg/injection, schedule: Q04DX003 (ip), vehicle: saline
[10] = dose: 50.0 mg/kg/injection, schedule: Q04DX003 (ip), vehicle: saline
[11] = dose: 100.0 mg/kg/injection, schedule: Q04DX003 (ip), vehicle: saline
[12] = dose: 100.0 mg/kg/injection, schedule: Q04DX002 (ip), vehicle: saline
[13] = dose: 200.0 mg/kg/injection, schedule: Q04DX002 (ip), vehicle: saline
[14] = dose: 100.0 mg/kg/injection, schedule: Q04DX003 (ip), vehicle: saline with Tween-80

Measured: T/C

CCCNC(C)(C)C(SSS)c1cccs1 (configuration not stated)
inactive: dose: 100.0 mg/kg/injection, schedule: Q04DX003 (ip), vehicle: alcohol 102 % of control | dose: 200.0 mg/kg/injection, schedule: Q04DX003 (ip), vehicle: alcohol 101 % of control

S=P(/C=C/c1ccccc1)(c1ccccc1)c1ccccc1
inactive: [1] 97 % of control | [2] 95 % of control | [3] 92 % of control | [4] 92 % of control | [5] 92 % of control

CS(=O)(=O)OCCN(CCOS(C)(=O)=O)c1ccc(C=Nc2cccc(Cl)c2)cc1
inactive: dose: 1.25 mg/kg/injection, schedule: Q04DX003 (ip), vehicle: Klucel (hydroxypropylcellulose) (HPC) 107 % of control | dose: 5.0 mg/kg/injection, schedule: Q04DX003 (ip), vehicle: Klucel (hydroxypropylcellulose) (HPC) 107 % of control

C=CCSc1nccc(=O)[nH]1
inactive: [1] 110 % of control | [3] 96 % of control

N#CCCN(CCC#N)C(=O)Cl
inactive: dose: 100.0 mg/kg/injection, schedule: Q01DX001 (sc), vehicle: olive oil, sesame oil, peanut oil 97 % of control | dose: 200.0 mg/kg/injection, schedule: Q01DX001 (sc), vehicle: olive oil, sesame oil, peanut oil 97 % of control | dose: 400.0 mg/kg/injection, schedule: Q01DX001 (sc), vehicle: olive oil, sesame oil, peanut oil 98 % of control

O=C1C(c2c[nH]c3ccc(Br)cc23)=Nc2ccc(Br)cc21
inactive: [6] 102 % of control | [7] 100 % of control | [8] 105 % of control

Cc1c(C=O)[nH]c(=O)[nH]c1=O
inactive: [6] 90 % of control | [7] 102 % of control | [8] 96 % of control

O=C(O)CCC1CC1C(=O)c1ccccc1 (configuration not stated)
inactive: dose: 50.0 mg/kg/injection, schedule: Q04DX003 (ip), vehicle: Klucel (hydroxypropylcellulose) (HPC) 102 % of control | [2] 100 % of control | [4] 103 % of control | [5] 103 % of control

C[S+]1CCSCC1
inactive: [9] 90 % of control | [10] 87 % of control | [11] 117 % of control

CCOc1ccc(N)c(O)c1
inactive: dose: 75.0 mg/kg/injection, schedule: Q01DX001 (ip), vehicle: carboxymethylcellulose (CMC) 98 % of control and 102 % of control | dose: 150.0 mg/kg/injection, schedule: Q01DX001 (ip), vehicle: carboxymethylcellulose (CMC) 93 % of control

CC(C)NC1C2CCC(CC2)C1(O)c1ccc(Cl)c(Cl)c1 (configuration not stated)
inactive: dose: 25.0 mg/kg/injection, schedule: Q01DX009 (ip), vehicle: saline 101 % of control | [9] 95 % of control | dose: 50.0 mg/kg/injection, schedule: Q01DX009 (ip), vehicle: saline 95 % of control | [10] 97 % of control | dose: 100.0 mg/kg/injection, schedule: Q01DX009 (ip), vehicle: saline 100 % of control | [11] 92 % of control | dose: 200.0 mg/kg/injection, schedule: Q01DX009 (ip), vehicle: saline 95 % of control | dose: 200.0 mg/kg/injection, schedule: Q04DX003 (ip), vehicle: saline 101 % of control | dose: 400.0 mg/kg/injection, schedule: Q01DX009 (ip), vehicle: saline 92 % of control | dose: 400.0 mg/kg/injection, schedule: Q04DX003 (ip), vehicle: saline 92 % of control

NC(CCO)C(=O)O (configuration not stated)
inactive: dose: 50.0 mg/kg/injection, schedule: Q04DX002 (ip), vehicle: saline 96 % of control | [12] 96 % of control | [13] 100 % of control

CC[N+](C)(C)CC(C)C
inactive: dose: 75.0 mg/kg/injection, schedule: Q01DX001 (ip), vehicle: saline 104 % of control | dose: 150.0 mg/kg/injection, schedule: Q01DX001 (ip), vehicle: saline 107 % of control

Cc1cnc(C)c(C(O)c2ccccc2)n1 (configuration not stated)
inactive: dose: 50.0 mg/kg/injection, schedule: Q01DX001 (ip), vehicle: saline 98 % of control | [6] 98 % of control | [7] 112 % of control | [8] 106 % of control

CCOP(=S)(OCC)SC(C)(C)C
inactive: dose: 25.0 mg/kg/injection, schedule: Q04DX003 (ip), vehicle: saline with Tween-80 95 % of control | dose: 50.0 mg/kg/injection, schedule: Q04DX003 (ip), vehicle: saline with Tween-80 103 % of control | [14] 104 % of control and 108 % of control

O=N/C=C/C(=N/Nc1ccc(C(=O)O)cc1)[N+](=O)[O-]
inactive: [6] 101 % of control | [7] 93 % of control | [8] 93 % of control

O=C(N/N=C\c1cc(=O)[nH]c(=O)[nH]1)c1ccccc1
inactive: [6] 100 % of control

CSc1ccc(NC(=O)NS(=O)(=O)c2ccc(C)cc2)cc1
inactive: dose: 100.0 mg/kg/injection, schedule: Q01DX009 (ip), vehicle: saline with Tween-80 88 % of control and 91 % of control | dose: 100.0 mg/kg/injection, schedule: Q04DX002 (ip), vehicle: saline with Tween-80 96 % of control | [14] 95 % of control | dose: 200.0 mg/kg/injection, schedule: Q01DX009 (ip), vehicle: saline with Tween-80 97 % of control and 91 % of control | dose: 200.0 mg/kg/injection, schedule: Q04DX002 (ip), vehicle: saline with Tween-80 89 % of control | dose: 200.0 mg/kg/injection, schedule: Q04DX003 (ip), vehicle: saline with Tween-80 89 % of control | dose: 400.0 mg/kg/injection, schedule: Q01DX009 (ip), vehicle: saline with Tween-80 87 % of control | dose: 400.0 mg/kg/injection, schedule: Q04DX002 (ip), vehicle: saline with Tween-80 100 % of control and 86 % of control | dose: 400.0 mg/kg/injection, schedule: Q04DX003 (ip), vehicle: saline with Tween-80 90 % of control

CCCOCCOCCOC(C)Oc1cc(OC)ccc1OC (configuration not stated)
inactive: [12] 93 % of control | [13] 111 % of control | dose: 400.0 mg/kg/injection, schedule: Q04DX002 (ip), vehicle: saline 96 % of control
